Tests used:
[1] = system: cultured HUVEC, isolated cardiac myocytes, and cultured cerebellar neurons; experiment: Zinc ionophore screening with Fura-2 loaded cells; assay type: cell-based, human, rabbit, mouse; conditions: for zinc ionophore activity: 1 μM zinc-complexed holo-ionophore, slope of Fura-2 fluorescence ratio 340/380 nm
Protocol: Human umbilical vein endothelial cells (HUVEC) were purchased from Clonetics (San Diego, Calif.) and passages 2-4 were used for these studies. Cells were cultured on flame-sterilized glass coverslips in Endothelial Basal Medium (Clonetics) supplemented with 10 ng/ml human recombinant epidermal growth factor, 1.0 ug/ml hydrocortisone, 50 ug/ml gentamicin, 50 ng/ml amphotetericin B, 12 ug/ml bovine brain extract and 2% v/v fetal bovine serum (all from Clonetics), in a humidified chamber at 37° C. and 5% CO2. To maintain cell populations, proliferating HUVEC were passaged at 80-90% confluency.
Cardiac myocytes were isolated from the ventricular septum of adult rabbit hearts, following collagenase digestion, in a manner similar to that described previously (Turan, B. et al., (1997) Am. J. Physiol. 272:H2095-H2106). The modification consisted of introducing low concentrations of CaCl2 during the perfusion with collagenase and the dispersion of the myocytes. Hearts were perfused for about 2 min by gravity under a hydrostatic pressure of 1 m, with a nominally Ca^2+-free solution containing (in mM): NaCl, 145; KCl, 5; MgSO4, 1.2; Na2HPO4, 1.8; HEPES, 5; glucose, 10; pH adjusted to 7.4 with NaOH. Forty ml of this perfusate were then supplemented with collagenase (1 mg/ml) and perfusion was continued with recirculation. […] The flow rate was then adjusted to 15 ml/min and 50 μM CaCl2 was added to the collagenase solution. Perfusion with this solution was continued for another 15 to 18 min, followed by a 2 min washout of the enzyme with fresh perfusate containing 100 μM CaCl2 and no collagenase. The hearts were then removed from the apparatus and the ventricular septum isolated and minced. Dissociation of the cells was obtained by gentle agitation of the minced tissue in 50 ml of the same perfusing solution. Following filtration through a 200 μm nylon mesh, the cells were allowed to settle and the supernatant was replaced with a solution containing 2 mM CaCl2. Cells were kept at 37° C. in this pre-oxygenated solution and were studied within 8 hours after isolation, cellular viability was ensured by regularly replacing the incubation solution.
Primary cultures of mouse cerebellar granule neurons were obtained from dissociated cerebella of postnatal day 8 or 9 mice according to the following protocol (Cregan et al., (1999) J. Neurosci. 19:7860-7869, incorporated herein by reference). Brains were removed and placed into separate dishes containing solution A (124 mM NaCl, 5.37 mM KCl, 1 mM NaH2 PO4 , 1.2 mM MgSO4 , 14.5 mM D-(1)-glucose, 25 mM HEPES, 3 mg/ml BSA, pH 7.4) in which the cerebella were dissected, meninges removed, and tissue sliced into small pieces. The tissue was briefly centrifuged and transferred to solution A containing 0.25 mg/ml trypsin, then incubated at 37° C. for 18 min. After the addition of 0.082 mg/ml trypsin inhibitor (Boehringer Mannheim, Indianapolis, IN) and 0.25 mg/ml DNase I (Boehringer Mannheim), the tissue was incubated at 25° C. for 2 min. After a brief centrifugation, the resulting pellet was gently titrated in solution A yielding suspension that was further incubated for 10 min at 25° C. in solution A containing 2.7 mM MgSO4 and 0.03 mM CaCl2. After a final centrifugation the pellet was resuspended in EMEM media (Sigma, St. Louis, Mo.) containing 10% dialyzed FBS (Sigma), 25 mM KCl, 2 mM glutamine (Life Technologies BRL, Gaithersburg, Md.), 25 mM glucose, and 0.1 mg/ml gentamycin (Sigma) and filtered through a cell strainer (size 70 μm; Falcon). Cells were plated on glass coverslips coated with poly-D-lysine (Sigma) in Nunc four-well dishes at a density of 1.5×10^6 cells per milliliter of medium. Cytosine-β-arabinoside (10 μM; Sigma) was added 24 hr after plating.
In order to ascertain that the transported ion was indeed Zn^2+, and not some other divalent cation contaminant, the test compounds were first complexed with zinc.

PTZ-induced seizures = experiment: Subcutaneous PTZ (pentylenetetrazole) test; assay type: in vivo, rat; conditions: 62.5 nmol/kg i.p.
Description: The ability of a test compound to inhibit PTZ-induced clonic and tonic convulsions is currently regarded as predictive of efficacy against “absence” seizures and/or myoclonic seizures (Suzdak, Jansen, 1995, Epilepsia, 36(6):612-626). The pharmacological profile of the PTZ test varies depending on the endpoint selected: PTZ can produce myoclonic jerks, repeated clonic seizures of forelimbs and hindlimbs with and without loss of righting reflex, and loss of righting reflex followed by tonic extension of the forelimbs and hind limbs. To have the full picture of the PTZ-induced seizures and of the effects of zinc ionophores, and to make the model more discriminative (White at al., supra) the behavioral reaction of each rat was monitored for a period of 2 hours which is much longer than the usual time period in conventional screening experiments.
PTZ (120 mg/kg) was administered subcutaneously to male Wistar rats (300-450 g). Zinc ionophores were injected i.p. in one bolus, 30 min before PTZ at a dose of 62.5 nmol/kg and a total volume of 0.25-0.4 ml.

[2] = system: Human umbilical vein endothelial cells (HUVEC)
Protocol: Human umbilical vein endothelial cells (HUVEC) were purchased from Clonetics (San Diego, Calif.) and used from passages 2-4. Cells were cultured on gelatin-coated culture dishes in Endothelial Basal Medium (Clonetics) supplemented with 10 ng/ml human recombinant epidermal growth factor, 1.0 ug/ml hydrocortisone, 50 ug/ml gentamicin, 50 ng/ml amphotetericin B, 12 ug/ml bovine brain extract and 2% v/v fetal bovine serum, in a humidified chamber at 37° C. and 5% CO2. To maintain cell populations, proliferating HUVEC were passaged at 80-90% confluency.
HUVEC were grown to confluency, and then given an additional 24 hours to achieve quiescence prior to experimental treatment. The following treatments were performed:
The cells were washed twice with 37° C. D-PBS and then irradiated in fresh media. Irradiated cells received a dose of 1000 Rads of gamma-irradiation from a ^137Cesium source (Atomic Energy of Canada). The cells were then incubated for 2 hours (cytosolic and nuclear protein extraction) or 8 hours (Hoechst staining and DNA electrophoresis).
Cells were grown on round, gelatin coated 12 mm glass coverslips, and following treatment, were fixed with 0.5 ml of 1% glutaraldehyde in PBS for 10 minutes at room temperature (RT). […] The nuclear morphology of the cells was then visualized under a Zeiss Axiophot fluorescence microscope.

PC12 cells = experiment: Differentiated PC12 cells, H2O2-induced apoptosis; assay type: cell-based, rat; conditions: concentrations equivalent to those of zinc-pyrithione; not shown
Description: Control cells were pretreated with the carrier DMSO alone.

Q: For `CCN(CC)C(=S)SSC(=S)N(CC)CC` [Disulfiram], which zinc ionophore activity [1] is on record?
A: Disulfiram ✓✓

Q: Which zinc ionophore activity [1] does the source give for `COc1ccc2c(c1)c(CC(=O)O)c(C)n2C(=O)c1ccc(Cl)cc1` [Indomethacin] here?
A: Indomethacin ✓

Q: Which zinc ionophore activity [1] does the source give for `CC1=C(/C=C/C(C)=C/C=C/C(C)=C/CO)C(C)(C)CCC1` [Vitamin A (all-trans-retinol), all-trans-retinol] here?
A: Vitamin A (all-trans-retinol) ✓

Q: How did the “latency of clonus with loss of righting reflex” value (PTZ-induced seizures; M ± S.E.M.) turn out when `Oc1c(I)cc(I)c2cccnc12.[Zn]` [ZDIHQ, zinc 5,7-diiodo-8-hydroxyquinoline] was run?
A: 21.2 ± 2.7 min

Q: What about the “latency of clonus without loss of righting reflex” value (PTZ-induced seizures; M ± S.E.M.) of the same compound?
A: 15.6 ± 1.7 min

Q: And the “latency of tonic seizure” value (PTZ-induced seizures; M ± S.E.M.)?
A: 28.4 ± 4.1 min

Q: What about the “increase of survival time (mean time to death) of non-survivors” value (PTZ-induced seizures; rats which died within 2 h) of the same compound?
A: 1.6 fold

Q: What about the zinc ionophore activity [1] of the same compound?
A: 5,7-Diiodo-8-hydroxyaquinoline ✓✓

Q: What about the “ionophore activity compared between cell types” value ([1]; HUVEC, cardiac myocytes, cerebellar neurons) of the same compound?
A: comparable in all three cell types tested

Q: Which zinc ionophore activity [1] does the source give for `Oc1cccc2cccnc12` [8-Hydroxyquinoline] here?
A: 8-Hydroxyquinoline, ✓

Q: For `[Na+].[O-][n+]1ccccc1[S-]` [sodium-pyrithione], which “apoptosis in irradiated HUVEC” value ([2]; 1000 Rads gamma-irradiation, 8 hours) is on record?
A: not effective

Q: What about the “apoptosis caused in control cultures” value ([2]; non-irradiated HUVEC) of the same compound?
A: No apoptosis

Q: Which zinc ionophore activity [1] does the source give for `S=C(S)N1CCCC1` [Pyrrolidinedithiocarbamate] here?
A: Pyrrolidinedithiocarbamate ✓✓

Q: For `Cc1c(C)c2c(c(C)c1O)CC[C@@](C)(CCC[C@H](C)CCC[C@H](C)CCCC(C)C)O2` [Vitamin E (alpha-tocopherol), alpha-tocopherol], which zinc ionophore activity [1] is on record?
A: Vitamin E (alpha-tocopherol) ✓

Q: How did the “apoptosis of H2O2-treated cells” value (PC12 cells) turn out when `[Zn+2]` [Zn^2+] was run?
A: did not block apoptosis
